In the supplement of paper PMC11451515:

Assays:
Conditions in all cases: 48 h
[1] = tested on: NOMO1; experiment: cell viability relative to DMSO control; higher = less cytotoxic
In short: (§1)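 Leukemia cells (NOMO1 or SEM, 500 cells/well; P12-Ichikawa, 1000 cells/well) were seeded in 5 μl in 1536-well plates after at least four passages of adaptation to each medium. They received library compounds in DMSO by pin dosing, 11 threefold points from 47 μM to 0.79 nM. Luminescence with CellTiter-Glo One was read after 48 h at 37°C. Viability is stated per plate relative to DMSO wells, with cell-free wells as background.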

[2] = tested on: P12-Ichikawa; experiment: as above
In short: as §1

[3] = tested on: SEM cells; experiment: as above
In short: as §1

[4] = tested on: NOMO1; experiment: AUC of viability dose-response curve (% viability x log10 dose units); higher = less sensitive
In short: (§2)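 Library compounds in DMSO were applied for 48 h at 37°C at 11 threefold doses (47 μM to 0.79 nM) to medium-adapted leukemia cells in 1536-well plates holding 500 or 1000 cells/well. Luminescence from CellTiter-Glo One was normalised plate by plate against DMSO and cell-free wells. Area under the curve came from trapezoidal integration of a log-logistic fit, after scaling curves that rose above full viability and discarding those that failed quality control. The fit had four parameters and used log10 doses.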

[5] = tested on: SEM cells; experiment: as above
In short: as §2

[6] = tested on: P12-Ichikawa; experiment: as above
In short: as §2

Cc1cn([C@@H]2O[C@H](CO)[C@@H](O)[C@@H]2F)c(=O)[nH]c1=O
cell viability [%]
Conditions | [1] | [2] | [3]
HPLM + 10% dialyzed FBS, 0.000781 µM | – | 103 | 74.5
HPLM + 10% dialyzed FBS, 0.00234 µM | – | 112 | 103
HPLM + 10% dialyzed FBS, 0.00702 µM | – | 116 | 102
HPLM + 10% dialyzed FBS, 0.0211 µM | – | 122 | 101
HPLM + 10% dialyzed FBS, 0.0632 µM | – | 116 | 110
HPLM + 10% dialyzed FBS, 0.19 µM | – | 122 | 104
HPLM + 10% dialyzed FBS, 0.569 µM | – | 132 | 110
HPLM + 10% dialyzed FBS, 1.71 µM | – | 124 | 116
HPLM + 10% dialyzed FBS, 5.12 µM | – | 126 | 116
HPLM + 10% dialyzed FBS, 15.4 µM | – | 122 | 104
HPLM + 10% dialyzed FBS, 46.1 µM | – | 123 | 95
RPMI 5 mM glucose + 10% FBS, 0.000781 µM | 93.5 | 101 | 101
RPMI 5 mM glucose + 10% FBS, 0.00234 µM | 108 | 115 | 102
RPMI 5 mM glucose + 10% FBS, 0.00702 µM | 102 | 116 | 103
RPMI 5 mM glucose + 10% FBS, 0.0211 µM | 117 | 120 | 93.4
RPMI 5 mM glucose + 10% FBS, 0.0632 µM | 114 | 124 | 122
RPMI 5 mM glucose + 10% FBS, 0.19 µM | 121 | 127 | 107
RPMI 5 mM glucose + 10% FBS, 0.569 µM | 110 | 119 | 108
RPMI 5 mM glucose + 10% FBS, 1.71 µM | 115 | 129 | 113
RPMI 5 mM glucose + 10% FBS, 5.12 µM | 109 | 130 | 117
RPMI 5 mM glucose + 10% FBS, 15.4 µM | 113 | 123 | 122
RPMI 5 mM glucose + 10% FBS, 46.1 µM | 29 | 17.6 | 119
RPMI 5 mM glucose + 10% dialyzed FBS, 0.000781 µM | 86.1 | 97 | 77
RPMI 5 mM glucose + 10% dialyzed FBS, 0.00234 µM | 120 | 110 | 111
RPMI 5 mM glucose + 10% dialyzed FBS, 0.00702 µM | 114 | 111 | 92.3
RPMI 5 mM glucose + 10% dialyzed FBS, 0.0211 µM | 108 | 113 | 109
RPMI 5 mM glucose + 10% dialyzed FBS, 0.0632 µM | 123 | 121 | 127
RPMI 5 mM glucose + 10% dialyzed FBS, 0.19 µM | 119 | 126 | 122
RPMI 5 mM glucose + 10% dialyzed FBS, 0.569 µM | 127 | 121 | 108
RPMI 5 mM glucose + 10% dialyzed FBS, 1.71 µM | 120 | 123 | 105
RPMI 5 mM glucose + 10% dialyzed FBS, 5.12 µM | 103 | 123 | 124
RPMI 5 mM glucose + 10% dialyzed FBS, 15.4 µM | 126 | 127 | 93.5
RPMI 5 mM glucose + 10% dialyzed FBS, 46.1 µM | 22.4 | 64.6 | 92.7

AUC of viability dose-response curve
Conditions | HPLM + 10% dialyzed FBS | RPMI 5 mM glucose + 10% FBS | RPMI 5 mM glucose + 10% dialyzed FBS
[4] | 456 | 460 | 458
[5] | 467 | 437 | 469

Fc1ccc([C@@H]2CCNC[C@H]2COc2ccc3c(c2)OCO3)cc1
[3], HPLM + 10% dialyzed FBS
Conditions | cell viability [%]
0.000781 µM | 119
0.00234 µM | 124
0.00702 µM | 130
0.0211 µM | 141
0.0632 µM | 122
0.19 µM | 123
0.569 µM | 125
1.71 µM | 109
5.12 µM | 103
15.4 µM | 58.9
46.1 µM | 24.7

AUC of viability dose-response curve
Conditions | [4] | [5] | [6]
HPLM + 10% dialyzed FBS | 447 | 417 | 396
RPMI 5 mM glucose + 10% FBS | 463 | 407 | 337
RPMI 5 mM glucose + 10% dialyzed FBS | 455 | 416 | 393

CCC(=O)NCC[C@@H]1CCc2ccc3c(c21)CCO3
AUC of viability dose-response curve
Conditions | [4] | [5] | [6]
HPLM + 10% dialyzed FBS | 444 | 430 | 444
RPMI 5 mM glucose + 10% FBS | 446 | 431 | 455
RPMI 5 mM glucose + 10% dialyzed FBS | 449 | 435 | 459

OC(CN1CCC(Cc2ccc(F)cc2)CC1)c1ccc(Cl)cc1 (centres undefined)
cell viability [%], [3]
Conditions | HPLM + 10% dialyzed FBS | RPMI 5 mM glucose + 10% dialyzed FBS
0.000781 µM | 106 | 116
0.00234 µM | 118 | 125
0.00702 µM | 108 | 115
0.0211 µM | 115 | 129
0.0632 µM | 116 | 126
0.19 µM | 118 | 139
0.569 µM | 117 | 140
1.71 µM | 122 | 136
5.12 µM | 124 | 125
15.4 µM | 130 | 128
46.1 µM | 129 | 136

AUC of viability dose-response curve
Conditions | [4] | [5] | [6]
HPLM + 10% dialyzed FBS | 456 | 440 | 449
RPMI 5 mM glucose + 10% FBS | 455 | 451 | 451
RPMI 5 mM glucose + 10% dialyzed FBS | 448 | 461 | 451

C[C@@H]1CC[C@H]2[C@@H](C)C(=O)O[C@@H]3O[C@@]4(C)CC[C@@H]1[C@]32OO4
cell viability [%], [3]
Conditions | RPMI 5 mM glucose + 10% FBS | RPMI 5 mM glucose + 10% dialyzed FBS
0.000781 µM | 115 | 132
0.00234 µM | 144 | 113
0.00702 µM | 118 | 120
0.0211 µM | 134 | 118
0.0632 µM | 109 | 110
0.19 µM | 108 | 100
0.569 µM | 115 | 97.6
1.71 µM | 87.6 | 77.3
5.12 µM | 91.7 | 72.2
15.4 µM | 116 | 112
46.1 µM | 114 | 126

AUC of viability dose-response curve
Conditions | [4] | [5] | [6]
HPLM + 10% dialyzed FBS | 435 | 436 | 440
RPMI 5 mM glucose + 10% FBS | 419 | 424 | 412
RPMI 5 mM glucose + 10% dialyzed FBS | 451 | 418 | 416

CN1CCN(CC1)C2=C3OCN(C)N4\C=C(C(O)=O)/C(=O)C(=C34)C=C2F
[3], HPLM + 10% dialyzed FBS
Conditions | cell viability [%]
0.000781 µM | 66.2
0.00234 µM | 116
0.00702 µM | 120
0.0211 µM | 124
0.0632 µM | 115
0.19 µM | 115
0.569 µM | 117
1.71 µM | 116
5.12 µM | 102
15.4 µM | 105
46.1 µM | 82

AUC of viability dose-response curve
Conditions | [4] | [5] | [6]
HPLM + 10% dialyzed FBS | 454 | 471 | 459
RPMI 5 mM glucose + 10% FBS | 450 | 466 | 459
RPMI 5 mM glucose + 10% dialyzed FBS | 465 | 434 | 465

OC(Cn1cncn1)(Cn1cncn1)c1ccc(F)cc1F
AUC of viability dose-response curve
Conditions | [4] | [5] | [6]
HPLM + 10% dialyzed FBS | 431 | 463 | 448
RPMI 5 mM glucose + 10% FBS | 449 | 451 | 448
RPMI 5 mM glucose + 10% dialyzed FBS | 449 | 467 | 462

CC(=O)O[C@H]1C[C@@H]2CC[C@@H]3[C@H](CC[C@@]4(C)[C@H]3C[C@H]([N+]3(C)CCCCC3)[C@@H]4OC(C)=O)[C@@]2(C)C[C@@H]1N1CCCCC1
[3], HPLM + 10% dialyzed FBS
Conditions | cell viability [%]
0.000781 µM | 124
0.00234 µM | 124
0.00702 µM | 138
0.0211 µM | 123
0.0632 µM | 146
0.19 µM | 144
0.569 µM | 120
1.71 µM | 137
5.12 µM | 132
15.4 µM | 125
46.1 µM | 110

AUC of viability dose-response curve
Conditions | [4] | [5] | [6]
HPLM + 10% dialyzed FBS | 454 | 470 | 464
RPMI 5 mM glucose + 10% FBS | 438 | 465 | 466
RPMI 5 mM glucose + 10% dialyzed FBS | 467 | 466 | 469
